Entries after “also recorded” stand apart in the source; their conditions may differ.
Assay: Unspecified test of effectiveness of AII fragments
Details: test not specified

Substance	effectiveness (tested, effective or not)
His-Pro-Phe (HPF) [AII(6-8)]	not to be effective
Tyr-Ile-His-Pro-Phe (YIHPF; printed: Tyr-Ile-His-Pro-Phe) [AII(4-8)]	not to be effective; also recorded: ineffective in repeated tests

From US7745411B2, “Methods for promoting erythropoiesis” (University of Southern California, priority 1998, dated 2010)
